From patent US9732119B2, “Immunomodulators” (BRISTOL-MYERS SQUIBB COMPANY, priority 2014, dated 2017)
pIC50: −log10 of the molar value. Positions of bridges follow the written chain, without caps; N, C: chain ends. Non-standard residues stand in square brackets, D forms with d. Residues, ends and D or L forms follow the SMILES beside them. Trp(1-CH2COOH) = N[C@@H](Cc1cn(CC(=O)O)c2ccccc12)C(=O)O; Phe(4-F) = N[C@@H](Cc1ccc(F)cc1)C(=O)O; Hyp = O=C(O)[C@@H]1C[C@@H](O)CN1; Aad = N[C@@H](CCCC(=O)O)C(=O)O; NMeNle = CCCC[C@H](NC)C(=O)O; Pip = O=C(O)[C@@H]1CCCCN1; Dab = NCC[C@H](N)C(=O)O; Dap = NC[C@H](N)C(=O)O

Biological target: T1, PD-1-Ig binding to PD-L1-TVMV-His (PD-L1-His) (Homo sapiens, UniProt Q9NZQ7)
T1 construct: hPDL1(19-239)-TVMV-His; made in house; host or cells: HEK293T cells
Experiment: PD-1/PD-L1 Homogenous Time-Resolved Fluorescence (HTRF) binding assay
Details: PD-1-Ig (20 nM) / PD-L1-His (10 nM); numeric values
Method in brief: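 HTRF competition: compound pre-incubated 15 min with PD-L1-His (10 nM final), then PD-1-Ig (20 nM final) added for 15 min in dPBS, 0.1% BSA, 0.05% Tween-20. Detection with Eu-cryptate anti-Ig (1 nM) and APC anti-His (20 nM) antibodies.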

T1 sequence (Q9NZQ7 with tags, fused parts or gaps): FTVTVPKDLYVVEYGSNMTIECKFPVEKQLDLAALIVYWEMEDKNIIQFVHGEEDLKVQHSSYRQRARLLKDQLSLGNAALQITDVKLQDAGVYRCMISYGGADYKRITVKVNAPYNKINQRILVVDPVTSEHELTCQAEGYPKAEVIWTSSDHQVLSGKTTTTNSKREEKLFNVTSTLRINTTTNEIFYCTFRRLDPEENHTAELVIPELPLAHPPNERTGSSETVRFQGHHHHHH

Row | pIC50 | SMILES
1 | 8.00 | CCCC[C@H]1C(=O)N(C)[C@@H](CCCC)C(=O)N[C@@H](CC(C)C)C(=O)N[C@H](C(N)=O)CNCC(=O)N[C@@H](Cc2ccc(F)cc2)C(=O)N2CCCC[C@H]2C(=O)N[C@@H](CC(N)=O)C(=O)N2CCC[C@H]2C(=O)N[C@@H](Cc2c[nH]cn2)C(=O)N[C@@H](CCC(=O)O)C(=O)N2C[C@H](O)C[C@H]2C(=O)N[C@@H](Cc2c[nH]c3ccccc23)C(=O)N[C@@H](C)C(=O)N[C@@H](Cc2cn(CC(=O)O)c3ccccc23)C(=O)N1C [Example 9052]
2 | 8.30 | CCCC[C@H]1C(=O)N(C)[C@@H](CCCC)C(=O)N[C@@H](CC(C)C)C(=O)N[C@H](C(N)=O)CNCC(=O)N[C@@H](Cc2ccc(F)cc2)C(=O)N2CCCC[C@H]2C(=O)N[C@@H](CC(=O)O)C(=O)N2CCC[C@H]2C(=O)N[C@@H](CCC(N)=O)C(=O)N[C@@H](CCC(N)=O)C(=O)N2C[C@H](O)C[C@H]2C(=O)N[C@@H](Cc2c[nH]c3ccccc23)C(=O)N[C@@H](CC(N)=O)C(=O)N[C@@H](Cc2cn(CC(=O)O)c3ccccc23)C(=O)N1C [Example 9041]

Same assay, conditions: PD-1-Ig (20 nM) / PD-L1-His (10 nM); range classes

Row | pIC50 | SMILES
3 | 7.00 to 8.00 | CCCC[C@H]1C(=O)N(C)[C@@H](CCCC)C(=O)N[C@@H](CC(C)C)C(=O)N[C@H](C(N)=O)CCCC(=O)N[C@@H](Cc2ccc(F)cc2)C(=O)N2CCCC[C@H]2C(=O)N[C@@H](CC(=O)O)C(=O)N2CCC[C@H]2C(=O)N[C@@H](CN)C(=O)N[C@@H](CC(C)C)C(=O)N2C[C@H](O)C[C@H]2C(=O)N[C@@H](Cc2c[nH]c3ccccc23)C(=O)N[C@@H](CCN)C(=O)N[C@@H](Cc2cn(CC(=O)O)c3ccccc23)C(=O)N1C [Example 10555] ([Phe(4-F)][Pip]DP[Dap]L[Hyp]W[Dab][Trp(1-CH2COOH)][NMeNle][NMeNle]L[Aad]-NH2; lactam N-14)
4 | 8.00 to 9.00 | CCCC[C@H]1C(=O)N(C)[C@@H](CCCC)C(=O)N[C@@H](CC(C)C)C(=O)N[C@H](C(=O)NCC(N)=O)CNCC(=O)N[C@@H](Cc2ccc(O)cc2)C(=O)N(C)[C@@H](C)C(=O)N[C@@H](CC(N)=O)C(=O)N2CCC[C@H]2C(=O)N[C@@H](CCC(N)=O)C(=O)N[C@@H](CC(C)C)C(=O)N2C[C@H](O)C[C@H]2C(=O)N[C@@H](Cc2c[nH]c3ccccc23)C(=O)N[C@@H](CC(N)=O)C(=O)N[C@@H](Cc2cn(CC(=O)O)c3ccccc23)C(=O)N1C [Example 9005]
5 | 7.00 to 8.00 | CCCC[C@H]1C(=O)N(C)[C@@H](CCCC)C(=O)N[C@@H](C)C(=O)N[C@H](C(=O)NCC(N)=O)CCNCC(=O)N[C@@H](Cc2ccc(O)cc2)C(=O)N(C)[C@@H](C)C(=O)N[C@@H](CC(=O)O)C(=O)N2CCC[C@H]2C(=O)N[C@@H](Cc2cnc[nH]2)C(=O)N[C@@H](CCC(N)=O)C(=O)N2C[C@H](O)C[C@H]2C(=O)N[C@@H](Cc2c[nH]c3ccccc23)C(=O)N[C@@H](CO)C(=O)N[C@@H](Cc2c[nH]c3ccccc23)C(=O)N1C [Example 10012]
6 | 8.00 to 9.00 | CCCC[C@H]1C(=O)N(C)[C@@H](CCCC)C(=O)N[C@@H](CC(C)C)C(=O)N[C@H](C(=O)NCC(N)=O)CNCC(=O)N[C@@H](Cc2ccc(O)cc2)C(=O)N(C)[C@@H](C)C(=O)N[C@@H](CC(N)=O)C(=O)N2CCC[C@H]2C(=O)N[C@@H](CCC(N)=O)C(=O)N[C@@H](CC(=O)O)C(=O)N2C[C@H](O)C[C@H]2C(=O)N[C@@H](Cc2c[nH]c3ccccc23)C(=O)N[C@@H](CC(N)=O)C(=O)N[C@@H](Cc2cn(CC(=O)O)c3ccccc23)C(=O)N1C [Example 9006]
7 | 8.00 to 9.00 | CCCC[C@H]1C(=O)N(C)[C@@H](CCCC)C(=O)N[C@@H](CCC(=O)O)C(=O)N[C@H](C(N)=O)CNCC(=O)N[C@@H](Cc2ccc(O)cc2)C(=O)N2CCCC[C@H]2C(=O)N[C@@H](CC(N)=O)C(=O)N2CCC[C@H]2C(=O)N[C@@H](CCC(N)=O)C(=O)N[C@@H](CC(=O)O)C(=O)N2C[C@H](O)C[C@H]2C(=O)N[C@@H](Cc2c[nH]c3ccccc23)C(=O)N[C@@H](CC(N)=O)C(=O)N[C@@H](Cc2cn(CC(=O)O)c3ccccc23)C(=O)N1C [Example 9043]
